Source: ChEMBL document CHEMBL1201862, “PubChem BioAssay data set” (2004)
Calls of active or inactive are those of the source.

How the values were obtained:
[1] = biological target: Sphingosine 1-phosphate receptor 2 (Homo sapiens, UniProt O95136); assay: Dose Response Cell Based Assay for Antagonists of the S1P2 Receptor. [Related pubchem assays: 856, 736 ]; format: functional
BJ [2] = assay: BJ-TERT fibroblast viability loss – cell-based, RAS-independent, luminescence, dose response (AID 1933); format: functional; conditions: Homo sapiens
Streptococcus = assay: GAS UMAA2166 growth inhibition – luminescence, BacTiterGlo, counter-screen for streptokinase expression inhibitor project, dose response (AID 1915); format: functional, organism-based;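 note: potency for reduction of bacterial viability or growth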
Bcl-2-like protein 10 = Bcl-2-like protein 10 (Homo sapiens, UniProt Q9HD36); assay: Bcl-B/TR3 peptide binding disruption – biochemical, fluorescence polarization, FITC-TR3 peptide, selectivity assay for Bfl-1 inhibitor project, primary screen (AID 748);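 note: fluorescence polarization from a fluorescein-labelled TR3 peptide binding purified Bcl-B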
Exodeoxyribonuclease V = Exodeoxyribonuclease V (Escherichia coli (strain K12), UniProt P04993+P07648+P08394); assay: RecBCD inhibition via phage-restricted bacterial growth – absorbance, V66 E. coli, mutant T4 phage, counter-screen for AddAB inhibitor project, dose response (AID 492957); format: functional, cell-based, Escherichia coli str. K-12 substr. MG1655
Cytochrome P450 1A2 = biological target: T1, Cytochrome P450 1A2 (Homo sapiens, UniProt P05177);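 note: PubChem cytochrome P450 panel assay, CYP1A2 panel member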
T1 sequence (P05177 whole entry): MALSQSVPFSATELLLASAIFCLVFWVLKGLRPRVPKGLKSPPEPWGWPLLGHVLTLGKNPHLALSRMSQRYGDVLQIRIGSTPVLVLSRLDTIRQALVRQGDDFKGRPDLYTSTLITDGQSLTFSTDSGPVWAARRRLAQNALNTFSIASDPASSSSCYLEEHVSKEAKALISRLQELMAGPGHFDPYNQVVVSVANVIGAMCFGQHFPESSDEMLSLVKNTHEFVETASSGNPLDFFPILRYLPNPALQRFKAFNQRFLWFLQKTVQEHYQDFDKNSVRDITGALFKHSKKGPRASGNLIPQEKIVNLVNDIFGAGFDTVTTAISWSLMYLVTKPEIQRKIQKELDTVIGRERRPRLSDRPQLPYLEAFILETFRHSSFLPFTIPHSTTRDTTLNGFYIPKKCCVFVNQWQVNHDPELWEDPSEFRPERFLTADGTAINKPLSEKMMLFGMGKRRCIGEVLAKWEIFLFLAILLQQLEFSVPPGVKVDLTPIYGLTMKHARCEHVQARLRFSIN

BJ [3] = assay: BJ-TERT-LT-ST fibroblast viability loss – cell-based, RAS-independent, luminescence, dose response (AID 1935); format: functional; conditions: Homo sapiens;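 note: BJ fibroblasts immortalized with TERT plus LT and ST oncogenes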
BJ [4] = assay: cells; format: functional, cell-based; conditions: Homo sapiens
Cytochrome P450 2C19 = Cytochrome P450 2C19 (Homo sapiens, UniProt P33261); assay: Cytochrome panel assay with activity outcomes. Panel member name: p450-cyp2c19 Compounds with AC50 equal or less than 10 uM are considered active; format: functional; conditions: read-out: AC50
Cytochrome P450 3A4 = Cytochrome P450 3A4 (Homo sapiens, UniProt P08684);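 note: CYP3A4 tested as one member of a cytochrome P450 panel screen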
Streptokinase A = biological target: T2, Streptokinase A (Streptococcus pyogenes serotype M1, UniProt P10520); assay: viability-normalized secreted streptokinase activity reduction – plasminogen activation absorbance, OD405, dose response (AID 1914); format: functional, Streptococcus pyogenes M1 GAS;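 note: secreted streptokinase activity via plasminogen activation per viability signal from cell pellet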
T2 sequence (P10520 whole entry): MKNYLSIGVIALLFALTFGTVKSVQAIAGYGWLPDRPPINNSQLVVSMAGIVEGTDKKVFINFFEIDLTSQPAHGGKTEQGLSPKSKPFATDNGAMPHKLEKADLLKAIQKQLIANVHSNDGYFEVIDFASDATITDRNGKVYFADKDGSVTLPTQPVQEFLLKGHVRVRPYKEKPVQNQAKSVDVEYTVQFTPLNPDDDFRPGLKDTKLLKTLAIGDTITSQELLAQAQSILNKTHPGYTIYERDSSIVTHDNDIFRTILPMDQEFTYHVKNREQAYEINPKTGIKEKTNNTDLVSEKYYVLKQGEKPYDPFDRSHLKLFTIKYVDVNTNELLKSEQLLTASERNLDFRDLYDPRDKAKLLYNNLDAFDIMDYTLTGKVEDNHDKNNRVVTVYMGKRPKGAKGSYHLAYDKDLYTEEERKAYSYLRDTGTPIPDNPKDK

INS1 = assay: INS-1E survival protection against cytokine death – cell-based, luminescence, retest, dose response (AID 449756); format: functional; conditions: Rattus norvegicus;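 note: cell death triggered by IL-1 beta plus TNF-alpha plus IFN-gamma mixture; protective hits raise ATP signal compared with cytokine alone wells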
[5] = Counterscreen for AddAB inhibitors: absorbance-based bacterial cell-based high throughput dose response assay for inhibitors of bacterial viability. [Related pubchem assays (depositor defined):AID435030, AID449728, AID449731, AID488942, AID488955, AID488956]; format: functional
[6] = tested on: Streptococcus sp. 'group A'; assay: Streptococcus pyogenes SK(-)GAS viability under kanamycin – luminescence, BacTiterGlo, confirmation, counter-screen for streptokinase expression inhibitor project, dose response (AID 1900); format: functional, organism-based
[7] = DRD fibroblast viability loss – cell-based, non-viral oncogenic, luminescence, dose response (AID 1934); format: functional; conditions: Homo sapiens
[8] = biological target: T3, Tyrosine-protein phosphatase non-receptor type 22 (Homo sapiens, UniProt Q9Y2R2); assay: inhibition of lymphoid tyrosine phosphatase LYP – biochemical, pCAP fluorogenic substrate, fluorescence, set 3, SAR follow-up (AID 449727); format: functional
T3 sequence (Q9Y2R2 whole entry): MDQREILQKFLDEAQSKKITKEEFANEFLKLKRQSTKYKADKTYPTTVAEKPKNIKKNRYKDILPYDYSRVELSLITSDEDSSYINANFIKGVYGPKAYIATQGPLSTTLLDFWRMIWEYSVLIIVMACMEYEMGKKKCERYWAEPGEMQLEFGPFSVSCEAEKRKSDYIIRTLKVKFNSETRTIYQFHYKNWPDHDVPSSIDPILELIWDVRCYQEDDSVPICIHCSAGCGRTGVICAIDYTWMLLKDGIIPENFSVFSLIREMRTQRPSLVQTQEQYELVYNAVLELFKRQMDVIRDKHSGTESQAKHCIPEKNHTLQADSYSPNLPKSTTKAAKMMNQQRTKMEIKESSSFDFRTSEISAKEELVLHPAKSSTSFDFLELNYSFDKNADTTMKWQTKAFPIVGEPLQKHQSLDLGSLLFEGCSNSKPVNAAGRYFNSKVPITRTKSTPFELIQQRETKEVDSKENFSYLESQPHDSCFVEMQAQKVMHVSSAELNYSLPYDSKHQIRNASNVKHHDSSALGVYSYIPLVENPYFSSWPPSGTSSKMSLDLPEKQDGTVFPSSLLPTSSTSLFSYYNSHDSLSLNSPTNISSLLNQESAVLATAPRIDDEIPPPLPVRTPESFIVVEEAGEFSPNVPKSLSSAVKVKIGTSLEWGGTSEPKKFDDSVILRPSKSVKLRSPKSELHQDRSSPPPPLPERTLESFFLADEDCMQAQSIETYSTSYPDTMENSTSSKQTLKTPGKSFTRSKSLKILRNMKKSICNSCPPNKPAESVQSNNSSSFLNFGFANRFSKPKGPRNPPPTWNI

[9] = luciferase reporter signal suppression in cells – H4 neuroglioma cells, luminescence, dose response (AID 1990); format: functional, cell-based
[10] = biological target: T4, G-protein coupled receptor 35 (Homo sapiens, UniProt Q9HC97); assay: inhibition of zaprinast-stimulated GPR35 beta-arrestin translocation – imaging, U2OS, beta-arrestin-GFP, zaprinast agonist, primary screen (AID 2058); format: functional;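 note: antagonist potency meaning inhibition of agonist-induced arrestin redistribution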
[11] = biological target: T5, Tyrosine-protein phosphatase non-receptor type 7 (Homo sapiens, UniProt P35236); assay: inhibition of hematopoietic tyrosine phosphatase HePTP – biochemical, set 2, SAR follow-up (AID 449736); format: functional
T5 sequence (P35236 whole entry): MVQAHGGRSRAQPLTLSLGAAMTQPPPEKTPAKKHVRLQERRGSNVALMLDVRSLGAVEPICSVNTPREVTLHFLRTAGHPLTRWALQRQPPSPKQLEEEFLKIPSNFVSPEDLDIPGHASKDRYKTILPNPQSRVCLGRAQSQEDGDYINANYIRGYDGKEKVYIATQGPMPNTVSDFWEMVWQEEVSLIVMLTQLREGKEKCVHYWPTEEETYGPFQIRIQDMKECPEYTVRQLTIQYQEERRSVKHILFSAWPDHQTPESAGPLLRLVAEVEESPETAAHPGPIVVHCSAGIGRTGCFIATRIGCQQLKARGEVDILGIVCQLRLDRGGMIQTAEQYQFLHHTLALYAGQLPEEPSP

[12] = biological target: Tyrosine-protein phosphatase non-receptor type 12 (Homo sapiens, UniProt Q05209); assay: SAR Selectivity Analysis of small molecule inhibitors of PEST using pCAP in a fluorescence assay. [Related pubchem assays (depositor defined):AID1779, AID1784, AID2135]; format: functional
[13] = biological target: T3, Tyrosine-protein phosphatase non-receptor type 22; assay: SAR LYP1 Fluorescent Assay using OMFP substrate for In Vitro dose response studies - Set 3. [Related pubchem assays (depositor defined):AID1779, AID1784, AID2140, AID2686]; format: functional
[14] = biological target: T4, G-protein coupled receptor 35; assay: SAR Analysis for the identification of Selective Antagonists of ERK1/2 Activity in GPR35-Overexpressing U2OS Cells. [Related pubchem assays: 2079, 2058 ]; format: functional, cell-based
[15] = Luminescence Cell-Based Dose Response HTS to Identify Inhibitors of 5'UTR Stem-Loop Driven Prion Protein mRNA Translation in H4 Neuroglioblastoma Cells. [Related pubchem assays: 1827 (Project Summary), 1813 (Primary HTS)]; format: functional
[16] = alpha-synuclein stem-loop luciferase translation blockers – H4 neuroglioma cells, luminescence, confirmation (AID 1988); format: functional, cell-based
[17] = biological target: G-protein coupled receptor 55 (Homo sapiens, UniProt Q9Y2T6); assay: blockers of GPR55 signalling, imaged – imaging, image-based, counter-screen for GPR35 antagonist project, SAR follow-up (AID 2397); format: functional
[18] = biological target: Ras and Rab interactor 1/Tyrosine-protein kinase ABL1 (Homo sapiens, UniProt P00519+Q13671); format: functional;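 note: biochemical TR-FRET dose-response test measuring inhibition of binding between Rin1 and Abl proteins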
[19] = biological target: Lysine-specific demethylase 4A (Homo sapiens, UniProt O75164); assay: inhibition of JMJD2A H3K9me3 demethylation – biochemical, DELFIA europium, cherry-picked samples, selectivity assay for GASC-1 inhibitor project, dose response (AID 488840)

T4 sequence (Q9HC97 whole entry): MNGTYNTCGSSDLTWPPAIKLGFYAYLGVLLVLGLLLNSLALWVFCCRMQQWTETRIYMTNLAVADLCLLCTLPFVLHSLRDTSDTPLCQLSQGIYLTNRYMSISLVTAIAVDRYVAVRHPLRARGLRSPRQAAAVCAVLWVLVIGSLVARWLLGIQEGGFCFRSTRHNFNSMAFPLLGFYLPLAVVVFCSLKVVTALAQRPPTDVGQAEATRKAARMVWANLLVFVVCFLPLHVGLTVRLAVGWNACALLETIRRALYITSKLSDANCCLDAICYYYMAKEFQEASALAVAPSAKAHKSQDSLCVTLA
Sphingosine 1-phosphate receptor 2, sequence (O95136 whole entry): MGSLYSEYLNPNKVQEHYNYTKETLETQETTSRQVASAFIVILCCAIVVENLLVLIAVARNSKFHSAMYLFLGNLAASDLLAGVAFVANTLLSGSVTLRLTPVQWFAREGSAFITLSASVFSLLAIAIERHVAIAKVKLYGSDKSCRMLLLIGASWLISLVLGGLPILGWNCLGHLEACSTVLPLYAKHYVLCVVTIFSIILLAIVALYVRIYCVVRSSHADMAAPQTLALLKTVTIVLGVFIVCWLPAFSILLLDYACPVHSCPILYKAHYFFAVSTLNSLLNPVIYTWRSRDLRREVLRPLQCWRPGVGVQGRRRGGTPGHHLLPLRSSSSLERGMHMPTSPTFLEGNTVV
Cytochrome P450 3A4, sequence (P08684 whole entry): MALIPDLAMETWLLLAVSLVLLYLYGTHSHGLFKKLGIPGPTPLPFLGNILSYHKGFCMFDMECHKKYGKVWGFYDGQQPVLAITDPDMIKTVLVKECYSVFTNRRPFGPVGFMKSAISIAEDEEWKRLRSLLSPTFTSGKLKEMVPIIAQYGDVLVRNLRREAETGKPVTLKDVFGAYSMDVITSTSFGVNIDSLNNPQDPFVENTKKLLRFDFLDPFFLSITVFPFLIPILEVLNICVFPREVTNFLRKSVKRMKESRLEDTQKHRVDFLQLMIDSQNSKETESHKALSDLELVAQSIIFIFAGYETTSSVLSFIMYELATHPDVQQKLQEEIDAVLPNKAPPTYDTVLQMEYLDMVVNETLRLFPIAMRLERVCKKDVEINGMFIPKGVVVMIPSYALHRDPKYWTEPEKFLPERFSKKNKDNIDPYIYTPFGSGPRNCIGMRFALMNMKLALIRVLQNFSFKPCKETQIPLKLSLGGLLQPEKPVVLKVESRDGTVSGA
Exodeoxyribonuclease V, sequence (P04993 whole entry): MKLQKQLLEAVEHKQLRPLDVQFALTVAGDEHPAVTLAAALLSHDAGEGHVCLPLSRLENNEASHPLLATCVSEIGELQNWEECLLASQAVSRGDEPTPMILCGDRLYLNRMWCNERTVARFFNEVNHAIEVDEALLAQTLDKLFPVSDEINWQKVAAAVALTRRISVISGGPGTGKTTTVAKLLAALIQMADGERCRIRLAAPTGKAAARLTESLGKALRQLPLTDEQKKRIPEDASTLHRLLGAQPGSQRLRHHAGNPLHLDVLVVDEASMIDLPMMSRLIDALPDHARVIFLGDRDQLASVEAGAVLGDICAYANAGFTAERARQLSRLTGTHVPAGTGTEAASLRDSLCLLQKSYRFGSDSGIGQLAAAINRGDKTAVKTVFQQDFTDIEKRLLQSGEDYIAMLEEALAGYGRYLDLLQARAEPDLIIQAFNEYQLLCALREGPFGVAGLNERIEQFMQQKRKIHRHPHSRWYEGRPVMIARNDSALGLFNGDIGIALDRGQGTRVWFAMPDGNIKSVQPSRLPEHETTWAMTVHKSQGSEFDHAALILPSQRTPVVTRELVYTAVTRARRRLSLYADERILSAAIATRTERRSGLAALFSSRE
Exodeoxyribonuclease V, sequence (P07648 whole entry): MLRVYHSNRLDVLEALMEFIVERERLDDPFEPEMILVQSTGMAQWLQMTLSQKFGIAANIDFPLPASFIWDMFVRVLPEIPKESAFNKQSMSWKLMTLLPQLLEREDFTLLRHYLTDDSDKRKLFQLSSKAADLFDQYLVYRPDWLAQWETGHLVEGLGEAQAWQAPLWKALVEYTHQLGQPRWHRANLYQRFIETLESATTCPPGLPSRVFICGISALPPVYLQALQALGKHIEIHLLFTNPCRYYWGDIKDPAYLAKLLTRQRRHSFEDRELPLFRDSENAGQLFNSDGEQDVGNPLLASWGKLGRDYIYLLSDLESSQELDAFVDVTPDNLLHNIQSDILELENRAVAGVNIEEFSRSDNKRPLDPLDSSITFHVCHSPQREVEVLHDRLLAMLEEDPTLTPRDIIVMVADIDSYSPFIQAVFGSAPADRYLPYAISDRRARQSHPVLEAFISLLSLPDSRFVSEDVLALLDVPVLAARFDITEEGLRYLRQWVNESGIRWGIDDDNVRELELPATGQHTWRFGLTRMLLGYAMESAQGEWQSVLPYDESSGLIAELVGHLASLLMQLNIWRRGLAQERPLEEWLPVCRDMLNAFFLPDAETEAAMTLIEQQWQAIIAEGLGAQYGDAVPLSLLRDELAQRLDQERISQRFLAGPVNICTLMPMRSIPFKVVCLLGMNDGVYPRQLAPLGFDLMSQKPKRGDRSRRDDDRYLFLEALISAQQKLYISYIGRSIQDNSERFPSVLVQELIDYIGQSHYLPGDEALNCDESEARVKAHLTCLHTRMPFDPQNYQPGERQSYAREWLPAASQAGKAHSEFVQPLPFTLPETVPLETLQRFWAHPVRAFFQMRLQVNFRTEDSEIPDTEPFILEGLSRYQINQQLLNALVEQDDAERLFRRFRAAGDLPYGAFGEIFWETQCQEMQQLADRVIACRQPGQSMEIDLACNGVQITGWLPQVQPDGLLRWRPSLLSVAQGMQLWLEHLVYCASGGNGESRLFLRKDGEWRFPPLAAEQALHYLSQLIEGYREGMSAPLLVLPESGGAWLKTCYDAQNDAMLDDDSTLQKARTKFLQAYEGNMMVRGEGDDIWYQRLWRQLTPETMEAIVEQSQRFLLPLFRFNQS
Exodeoxyribonuclease V, sequence (P08394 whole entry): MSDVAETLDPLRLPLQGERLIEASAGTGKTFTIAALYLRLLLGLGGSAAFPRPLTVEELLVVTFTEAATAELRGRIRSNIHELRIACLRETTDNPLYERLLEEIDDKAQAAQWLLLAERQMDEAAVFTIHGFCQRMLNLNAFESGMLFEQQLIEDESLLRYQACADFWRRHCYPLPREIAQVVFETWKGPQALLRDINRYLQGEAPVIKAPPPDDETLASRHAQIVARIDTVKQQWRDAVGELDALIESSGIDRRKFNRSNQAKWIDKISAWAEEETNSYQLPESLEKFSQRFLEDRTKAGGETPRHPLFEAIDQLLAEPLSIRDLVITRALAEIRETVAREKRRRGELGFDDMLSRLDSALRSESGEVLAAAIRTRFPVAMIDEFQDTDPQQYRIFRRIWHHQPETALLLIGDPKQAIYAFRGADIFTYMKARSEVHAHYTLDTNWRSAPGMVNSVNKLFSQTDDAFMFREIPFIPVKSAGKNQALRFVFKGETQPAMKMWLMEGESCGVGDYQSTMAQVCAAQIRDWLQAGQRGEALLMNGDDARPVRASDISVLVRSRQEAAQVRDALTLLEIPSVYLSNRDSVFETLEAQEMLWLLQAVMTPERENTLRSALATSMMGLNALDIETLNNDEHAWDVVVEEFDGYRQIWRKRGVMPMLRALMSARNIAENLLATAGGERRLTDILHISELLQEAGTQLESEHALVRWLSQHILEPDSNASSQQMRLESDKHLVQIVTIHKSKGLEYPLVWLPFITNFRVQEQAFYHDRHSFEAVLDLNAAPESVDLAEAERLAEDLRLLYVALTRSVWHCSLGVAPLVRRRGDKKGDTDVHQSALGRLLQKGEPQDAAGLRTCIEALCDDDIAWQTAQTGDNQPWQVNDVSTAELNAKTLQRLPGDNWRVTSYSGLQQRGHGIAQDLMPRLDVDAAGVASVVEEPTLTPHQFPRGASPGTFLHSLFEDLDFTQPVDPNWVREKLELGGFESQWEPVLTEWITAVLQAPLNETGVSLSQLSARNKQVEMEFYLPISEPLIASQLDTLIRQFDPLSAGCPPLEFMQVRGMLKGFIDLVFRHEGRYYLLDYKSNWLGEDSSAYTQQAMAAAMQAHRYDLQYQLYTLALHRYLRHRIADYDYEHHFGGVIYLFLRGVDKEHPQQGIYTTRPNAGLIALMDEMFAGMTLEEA
Bcl-2-like protein 10, sequence (Q9HD36 whole entry): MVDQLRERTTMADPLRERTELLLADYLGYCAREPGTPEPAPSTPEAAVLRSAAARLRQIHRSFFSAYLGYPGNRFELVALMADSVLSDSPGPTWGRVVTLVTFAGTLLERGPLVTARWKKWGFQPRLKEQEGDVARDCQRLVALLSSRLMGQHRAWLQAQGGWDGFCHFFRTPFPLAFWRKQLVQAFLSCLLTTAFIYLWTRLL
Cytochrome P450 2C19, sequence (P33261 whole entry): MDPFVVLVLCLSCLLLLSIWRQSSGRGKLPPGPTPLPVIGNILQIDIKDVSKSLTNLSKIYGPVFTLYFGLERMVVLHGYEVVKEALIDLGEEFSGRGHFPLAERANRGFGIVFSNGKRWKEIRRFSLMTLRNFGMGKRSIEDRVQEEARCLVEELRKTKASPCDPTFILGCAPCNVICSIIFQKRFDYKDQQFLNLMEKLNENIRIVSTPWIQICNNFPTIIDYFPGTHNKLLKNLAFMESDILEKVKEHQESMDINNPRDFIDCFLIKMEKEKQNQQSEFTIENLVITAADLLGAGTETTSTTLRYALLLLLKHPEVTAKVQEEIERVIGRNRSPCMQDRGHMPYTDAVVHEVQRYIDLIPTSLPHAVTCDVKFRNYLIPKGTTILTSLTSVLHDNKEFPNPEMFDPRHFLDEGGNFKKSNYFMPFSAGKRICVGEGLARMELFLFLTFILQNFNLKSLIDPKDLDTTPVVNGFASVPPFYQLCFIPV

## Cc1ccc(-[n+]2c(-c3ccc(Br)cc3)cn3c2CCc2ccc4cccnc4c2-3)cc1
[1]
  IC50: 4.28 µM (active)
BJ [2]
  EC50: 0.649 µM (inconclusive)
Streptococcus
  EC50: > 50 µM (not active)
Bcl-2-like protein 10
  IC50: 41.4 µM (active)
Exodeoxyribonuclease V
  IC50: 28.4 µM (inactive)
Cytochrome P450 1A2
  AC50: 25.1 µM (inconclusive)
BJ [3]
  EC50: 2.98 µM (inconclusive)
BJ [4]
  EC50: 1.69 µM (inconclusive)
Cytochrome P450 2C19
  AC50: 28.2 µM (inconclusive)
Cytochrome P450 3A4
  AC50: 4.47 µM (inconclusive)
Streptokinase A
  EC50: 6.5 µM (active)
INS1
  AC50: 0.412 µM (active)
[5]
  IC50: 16.9 µM (inactive)
[6]
  EC50: 6.51 µM (active)
[7]
  EC50: 3.51 µM (active)

## O=C(CCCN1C(=O)/C(=C/c2ccc3c(c2)OCO3)SC1=S)Nc1cccc(C(=O)O)c1
[8]
  IC50: 62.7 µM (active)
[9]
  EC50: 10.2 µM (active)
[10]
  IC50: 0.803 µM (active)
[11]
  IC50: 2.47 µM (active)
[12]
  IC50: 37.4 µM (active)
[13]
  IC50: > 100 µM (inactive)
[14]
  IC50: 1.89 µM (active)
[15]
  EC50: 17.5 µM (active)
[16]
  EC50: > 120 µM (not active)
[17]
  IC50: > 32 µM (inactive)

## CN(C(=O)c1ccc(NC(=O)Cc2ccc(NC(=O)C3CCN(C(=O)C4CC4)CC3)cc2)cc1)C1CC1
[18]
  IC50: 9.39 µM (active)
[19]
  AC50: 17.8 µM (active)
